Measured values published in PMC10706425, “Enhancing the Antimicrobial Properties of Peptides through Cell-Penetrating Peptide Conjugation: A Comprehensive Assessment” (International Journal of Molecular Sciences, 2023).

Tests used:
S. aureus (209P strain) = experiment: Antibacterial activity in liquid medium; type: cell-based, Staphylococcus aureus; details: 209P strain; Mueller–Hinton broth, 37 °C, 2% DMSO
Description: (§1) Two S. aureus strains were used: a susceptible strain 209P and a clinical isolate strain 129B (resistant to antibiotics: benzylpenicillin, clindamycin, erythromycin, oxacillin, sulfamethoxazole, and vancomycin). Two MRSA strains were included: a susceptible strain ATCC 43300 (resistant to antibiotics: methicillin, oxacillin (beta-lactam antibiotics), ampicillin (https://www.atcc.org/products/43300 (accessed on 11 November 2023)) and a clinical isolate strain SA 180 (resistant to antibiotics: benzylpenicillin and oxacillin (beta-lactam antibiotics), ciprofloxacin, clindamycin, erythromycin, levomycetin, sulfamethoxazole, and vancomycin). One B. cereus was used: a susceptible strain, IP 5832. Two P. aeruginosa strains were included: a susceptible strain, ATCC 28753, and a resistant strain, 2943. Two E. coli strains were used: a susceptible strain, K12, and a susceptible strain, MG1655.
(§2) Determination of the growth for the bacteria S. aureus strain 209P, MRSA strain ATCC 43300, B. cereus strain IP 5832, P. aeruginosa strain ATCC 28753, and E. coli strain K12 was performed using Mueller–Hinton Broth (MHB) (Sigma-Aldrich, St. Louis, MO, USA). Bacteria of S. aureus (strain 129B) and MRSA (strain SA 180-F) were grown on the brain-heart infusion (BHI) medium, and bacteria of P. aeruginosa (strain 2943) and E. coli (strain MG1655) were grown on the LB medium. The preparation and co-incubation of peptides with bacteria were carried out as described previously. The samples were grown at 37 °C.

bacteria = experiment: Antibacterial activity of amyloidogenic fragments alone (bacteria not given); type: cell-based; details: Table 2 and Table S1
MRSA (ATCC 43300 strain) = experiment: Antibacterial activity in liquid medium; type: cell-based, Methicillin-resistant Staphylococcus aureus; details: ATCC 43300 strain; Mueller–Hinton broth, 37 °C, 2% DMSO
Description: as §1, §2

E. coli (K12 strain) = experiment: Antibacterial activity in liquid medium; type: cell-based, Escherichia coli; details: K12 strain; Mueller–Hinton broth, 37 °C, 2% DMSO
Description: as §1, §2

ITDFGIFIGL [I10L^P]
913 µM: Peptide Activity in Liquid Medium after 15 h of Incubation (Gentamicin as Positive Control) (S. aureus (209P strain)) | Concentration with antibacterial activity, amyloidogenic fragment alone (bacteria) | Peptide Activity in Liquid Medium after 15 h of Incubation (Gentamicin as Positive Control) (MRSA (ATCC 43300 strain)) | Peptide Activity in Liquid Medium after 15 h of Incubation (Gentamicin as Positive Control) (E. coli (K12 strain))
